This note sets out measurements from patent US8546452B2, “S1P3 receptor antagonist” (TOA Eiyo Ltd., priority 2005, dated 2013).

A short description of series [1]: Time to reach the maximum blood concentration after oral administration. Conditions: oral administration (1 mg/kg). In kind it is in vivo.
The target of series [2] is T1, hS1P3 (Homo sapiens, UniProt Q99500). The series can be described thus: S1P receptor subtype selectivity, S1P-induced [Ca2+]i increase in CHO-K1 cells stably expressing S1P3 (Calcium3). In kind it is cell-based. The protocol: (§1) The selectivity to the S1P receptor subtype was examined in the following manner. […] Furthermore, a Calcium3 (Molecular Devices, Inc.) solution prepared in HBSS (+) buffer, which is a fluorescent Ca^2+ indicator, was added, and the cells were incubated for 60 minutes at 37° C. Then, 100 μL of a test compound solution prepared to a concentration of 2×10 μmol/L was added, and the cells were incubated for 20 minutes at 37° C. […] The indicator was prepared and used according to the instruction manual.
(§2) A solution of the test compound was prepared by dissolving each of the test compounds in DMSO to a concentration of 10 mmol/L, and then diluting the solution with an HBSS (+) buffer solution to the predetermined concentration. […] The measurement values were obtained by subtracting the maximum RFU value for the blind test from the maximum RFU values for control or each test compounds. A decrease in the measurement value for the test compound relative to the control was indicated as the suppression rate (%), from which the IC50 value was calculated.

In series [3] the target is T1, hS1P3. The series can be described thus: Suppressive effect on S1P-induced increase in [Ca2+]i, CHO-K1 cells expressing S1P3 (Fura 2-AM), IC50. The conditions noted are these: S1P solution 50 nmol/L, read-out: hS1P3 suppression IC50. In kind it is cell-based.
In another series the target is T2, hS1P1 (Homo sapiens, UniProt P21453).
T2 construct: expressed in transfected cells
The series is described as follows: S1P receptor subtype selectivity, S1P-induced [Ca2+]i increase in CHO-K1 cells stably expressing S1P1 (Calcium3). In kind it is cell-based. The protocol:
as §1, §2

In a further series the target is T3, hS1P2 (Homo sapiens, UniProt O95136).
T3 construct: expressed in transfected cells
The series is described as follows: S1P receptor subtype selectivity, S1P-induced [Ca2+]i increase in CHO-K1 cells stably expressing S1P2 (Calcium3). In kind it is cell-based. The protocol:
as §1, §2

The subject of another series is isolated heart of rat. The series can be described thus: Effect on the coronary blood flow rate in isolated heart of rat (Langendorff perfusion). Conditions: S1P 10^−9 M to 10^−7 M in perfusion solution. How it is done:
A male SD rat weighing about 350 g was anesthetized with pentobarbital sodium (50 mg/kg), and heparin (1000 U/kg) was administered through the lower limb vein. The heart was rapidly isolated and connected to a Langendorff perfusion apparatus. […] The temperature of the perfusion solution was set at 37±0.2° C., and gassed with a gas mixture (95% O2 and 5% CO2) such that the oxygen partial pressure was 550 mmHg or more. The coronary perfusion flow rate was measured with an electromagnetic blood flow meter through a probe installed in the circulation pathway. Furthermore, the effects on the heart function were investigated using the left ventricular developed pressure (LVDP), the first derivative of the left ventricular pressure (LV±dp/dt) and the heart rate (HR) as indices. The LVDP was determined by subtracting the left ventricular end diastolic pressure (LVEDP) from the left ventricular systolic pressure (LVSP), which was detected with a latex balloon inserted into the left ventricle, and measured with a pressure strain meter via a pressure transducer. […] Signals measured with the pressure strain meter were conducted to a differential meter and a heart rate meter, to measure the first derivative of the left ventricular pressure (LV±dp/dt) and the heart rate (HR). […]

Series [4] has as its system FTY720-induced bradycardia. The series is described as follows: Effect on hemodynamic changes (bradycardia) caused by FTY720 in anesthetized rat. In kind it is in vivo. Conditions: FTY720 1 mg/kg intravenously. The protocol: Thus, the effects of the compound of the present invention on the FTY720-induced bradycardia were examined.
A rat was anesthetized with pentobarbital (50 mg/kg, intraperitoneal administration), and then catheters for drug administration and blood pressure measurement were inserted into the lower limb vein and the carotid artery, respectively. The blood pressure was measured with a strain pressure amplifier via a pressure transducer. The heart rate was measured with a tachometer by means of the electrocardiographic wave. The FTY720 used was purchased from Cayman Chemical Co.
FTY720 (1 mg/kg) was intravenously administered, and the effects thereof on hemodynamics were investigated by measuring the blood pressure and the heart rate at 0 minute (immediately before administration), and 10, 20 and 30 minutes immediately after the intravenous administration.

The mark [5] stands for this setting: CHO-K1, read-out: Suppression rate at 10 μM (%) hS1P3.
Where [6] appears, read: CHO-K1, read-out: Suppression rate at 10 μM (%) hS1P1.
The mark [7] stands for this setting: CHO-K1, read-out: Suppression rate at 10 μM (%) hS1P2.
Setting [8] is: 10 μM, CHO-K1 stably expressing S1P3, S1P solution 50 nmol/L, Calcium3, read-out: Suppression rate at 10 μM (%) hS1P3.
Setting [9] is: 10 μM, CHO-K1 stably expressing S1P1, S1P solution 100 nmol/L, Calcium3, read-out: Suppression rate at 10 μM (%) hS1P1.
The mark [10] stands for this setting: 10 μM, CHO-K1 stably expressing S1P2, S1P solution 100 nmol/L, Calcium3, read-out: Suppression rate at 10 μM (%) hS1P2.

Where two headings read alike, the source gives them in different places.

T3 sequence (O95136 whole entry): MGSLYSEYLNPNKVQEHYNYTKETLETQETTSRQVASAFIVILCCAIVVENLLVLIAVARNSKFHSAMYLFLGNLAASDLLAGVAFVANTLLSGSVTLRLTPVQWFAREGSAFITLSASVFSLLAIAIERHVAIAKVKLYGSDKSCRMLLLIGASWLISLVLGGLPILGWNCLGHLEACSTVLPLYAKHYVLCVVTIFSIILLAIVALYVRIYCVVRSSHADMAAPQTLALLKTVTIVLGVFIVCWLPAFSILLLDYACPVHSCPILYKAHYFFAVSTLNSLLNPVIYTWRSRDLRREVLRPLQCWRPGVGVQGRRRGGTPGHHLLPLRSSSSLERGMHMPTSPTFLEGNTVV
T1 sequence (Q99500 whole entry): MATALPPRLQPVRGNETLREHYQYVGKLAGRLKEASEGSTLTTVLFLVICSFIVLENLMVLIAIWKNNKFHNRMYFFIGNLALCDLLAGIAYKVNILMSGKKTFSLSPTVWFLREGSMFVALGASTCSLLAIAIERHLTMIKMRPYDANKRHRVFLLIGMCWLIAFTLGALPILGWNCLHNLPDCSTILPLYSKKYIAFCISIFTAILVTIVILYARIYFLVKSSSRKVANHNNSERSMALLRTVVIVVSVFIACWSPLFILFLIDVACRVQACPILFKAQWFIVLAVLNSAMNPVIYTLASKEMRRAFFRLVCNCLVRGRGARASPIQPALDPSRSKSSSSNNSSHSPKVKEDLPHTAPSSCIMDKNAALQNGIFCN
T2 sequence (P21453 whole entry): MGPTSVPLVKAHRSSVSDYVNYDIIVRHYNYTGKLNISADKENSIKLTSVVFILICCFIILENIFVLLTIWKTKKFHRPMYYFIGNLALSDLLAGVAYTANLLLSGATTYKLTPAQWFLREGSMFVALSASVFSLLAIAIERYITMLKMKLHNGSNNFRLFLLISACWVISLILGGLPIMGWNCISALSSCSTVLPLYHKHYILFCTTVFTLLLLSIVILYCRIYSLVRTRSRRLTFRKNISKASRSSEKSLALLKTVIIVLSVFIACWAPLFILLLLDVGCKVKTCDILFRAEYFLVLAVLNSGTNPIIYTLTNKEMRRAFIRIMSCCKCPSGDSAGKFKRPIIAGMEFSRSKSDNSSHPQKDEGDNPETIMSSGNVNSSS

With `CC(C)(C)C(=O)/C(=N/c1ccc(Cl)cc1)NNc1ccc(Cl)cc1` [Compound 33, 1-(4-chlorophenylamino)-1-(4-chlorophenylhydrazono)-3,3-dimethyl-2-butanone], in series [1], the “time to reach the maximum blood concentration” value was 4 h.

As usually defined, the IC50 is the concentration needed to halve the response being measured. `C#Cc1ccc(NC(=NNc2ccc(Br)cc2)C(=O)C(C)(C)C)cc1` [Compound 78, 1-(4-bromophenylhydrazono)-1-(4-ethynylphenylamino)-3,3-dimethyl-2-butanone]: the inhibition at 10 µM on hS1P3 [2] (setting [5]) stood at 105%; on hS1P1 (setting [6]), 25.1%; on hS1P2 (setting [7]) it was 20.8%. In addition, the IC50 at hS1P3 [3] is 970 nM.

For the compound `C#Cc1ccc(NC(=NNc2ccc(Cl)cc2)C(=O)CCCC)cc1` [Compound 111, 1-(4-chlorophenylhydrazono)-1-(4-ethynylphenylamino)-2-hexanone], the inhibition at 10 µM at hS1P3 [2] (setting [5]) was 95.1%; on hS1P1 (setting [6]) it was -16.6%; at hS1P2 (setting [7]) it was 23.1%. At hS1P3 [3], the IC50 was found to be 1550 nM.

As to `CCC(CC)C(=O)C(=NNc1ccc(Cl)cc1)Nc1ccc(F)cc1` [Compound 112, 1-(4-chlorophenylhydrazono)-1-(4-fluorophenylamino)-3-ethyl-2-pentanone], the inhibition at 10 µM at hS1P3 [2] (setting [8]) is 86.6%; on hS1P1 (setting [9]), 22.1%; on hS1P2 (setting [10]), 12.8%. The IC50 on hS1P3 [3] came to 1660 nM.

Consider `C#Cc1ccc(NC(=NNc2ccc(Cl)cc2)C(=O)C(C)(C)CCl)cc1` [Compound 122, 4-chloro-1-(4-chlorophenylhydrazono)-1-(4-ethynylphenylamino)-3,3-dimethyl-2-butanone], for which the figures for the inhibition at 10 µM on hS1P3 [2] (setting [5]), at hS1P1 (setting [6]) and at hS1P2 (setting [7]) were 89.9%, 4.9% and 7.1%, respectively. In addition, the IC50 at hS1P3 [3] amounted to 3860 nM.

As to `CC(C)(C)C(=O)C(=NNc1ccc(Cl)cc1)Nc1ccc(Br)cc1` [Compound 134, 1-(4-bromophenylamino)-1-(4-chlorophenylhydrazono)-3,3-dimethyl-2-butanone], the inhibition at 10 µM on hS1P3 [2] (setting [8]) was 96.5%; at hS1P1 (setting [9]), 36.4%; at hS1P2 (setting [10]) it was 29.8%. The IC50 at hS1P3 [3] is 870 nM.

As to `C#Cc1ccc(NC(=NNc2ccc(Cl)cc2)C(=O)C(C)(C)C)cc1` [Compound 136, 1-(4-chlorophenylhydrazono)-1-(4-ethynylphenylamino)-3,3-dimethyl-2-butanone], the inhibition at 10 µM amounted to 94.3% at hS1P3 [2] (setting [5]), 40.3% on hS1P1 (setting [6]) and 33.7% on hS1P2 (setting [7]). Further, the IC50 at hS1P3 [3] amounted to 990 nM.

Take `C#Cc1ccc(NN=C(Nc2ccc(C#C)cc2)C(=O)C(C)(C)C)cc1` [Compound 138, 1-(4-ethynylphenylamino)-1-(4-ethynylphenylhydrazono)-3,3-dimethyl-2-butanone]: the inhibition at 10 µM was 79.9% on hS1P3 [2] (setting [5]), 14.1% at hS1P1 (setting [6]) and 8% on hS1P2 (setting [7]). Moreover, the IC50 on hS1P3 [3] was 1620 nM.

Take `CCCCCCCCCCCCC/C=C/[C@@H](O)[C@@H](N)COP(=O)(O)O` [Compound S1P, sphingosine 1-phosphate]: the “coronary blood flow rate, effect of S1P” value with isolated heart of rat is recorded as “significantly decreased”.

`CCCCCCCCc1ccc(CCC(N)(CO)CO)cc1` [FTY720]: the “heart rate, effect of FTY720” value in series [4] is “reduced the heart rate and induced bradycardia”.
